The molecules below were run against T1, vanilloid receptor 1 (VR1/TRPV1 receptor) (Homo sapiens, UniProt Q8NER1) (assay: VR1/TRPV1 receptor affinity, capsaicin stimulus (human)). Conditions: @ 5 μM, Tables 8-12, read-out: (f) Ki (human being) [nM] Cap: inhibition (as a percentage).
T1 construct: expressed in transfected cells; host or cells: CHO K1 cells (ECACC), stably transfected
Assay type: cell-based, human being
Design: key to (f) Ki (human being) [nM] Cap: result in words: AG=agonist; pAG=partial agonist; NE=no effect

T1 sequence (Q8NER1 whole entry): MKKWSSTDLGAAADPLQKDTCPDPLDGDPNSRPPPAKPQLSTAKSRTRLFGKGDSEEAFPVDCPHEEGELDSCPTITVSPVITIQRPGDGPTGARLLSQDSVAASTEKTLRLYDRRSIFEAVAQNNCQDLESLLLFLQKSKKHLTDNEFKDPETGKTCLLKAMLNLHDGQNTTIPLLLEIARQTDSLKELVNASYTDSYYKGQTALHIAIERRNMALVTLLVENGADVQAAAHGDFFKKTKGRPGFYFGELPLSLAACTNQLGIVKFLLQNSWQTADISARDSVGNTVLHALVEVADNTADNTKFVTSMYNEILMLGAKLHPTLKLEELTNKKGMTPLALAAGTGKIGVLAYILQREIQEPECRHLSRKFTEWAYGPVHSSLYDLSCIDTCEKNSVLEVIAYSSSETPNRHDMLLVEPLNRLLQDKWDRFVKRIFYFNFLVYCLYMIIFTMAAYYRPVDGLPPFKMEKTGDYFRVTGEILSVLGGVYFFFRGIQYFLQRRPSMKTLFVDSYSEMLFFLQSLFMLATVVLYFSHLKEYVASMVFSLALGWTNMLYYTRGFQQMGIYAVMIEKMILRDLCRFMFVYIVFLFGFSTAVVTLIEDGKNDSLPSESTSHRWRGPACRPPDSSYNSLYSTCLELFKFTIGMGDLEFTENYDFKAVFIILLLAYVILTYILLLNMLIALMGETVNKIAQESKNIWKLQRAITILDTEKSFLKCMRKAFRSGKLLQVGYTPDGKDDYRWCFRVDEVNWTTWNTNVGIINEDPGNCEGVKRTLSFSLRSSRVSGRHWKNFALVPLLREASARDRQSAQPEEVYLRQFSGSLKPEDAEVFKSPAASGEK

Question: With `CC(C(=O)NCc1cc(C(F)(F)F)nn1-c1cccc(Cl)c1)c1ccc(CN(C)C)c(F)c1` (stereo not shown) [Example B65, N-[[2-(3-Chlorophenyl)-5-(trifluoromethyl)-2H-pyrazol-3-yl]-methyl]-2-[4-(dimethylaminomethyl)-3-fluoro-phenyl]-propionamide] as the molecule, how does the inhibition at 5 µM read?
Answer: The inhibition at 5 µM was 36%.

Same assay, conditions: Tables 8-12

Question: With `CC(=O)NCc1ccc(C(C)C(=O)NCc2cc(C(C)(C)C)nn2-c2cccc(Cl)c2)cc1F` (stereo not shown) [Example B67, 2-[4-(Acetylamino-methyl)-3-fluoro-phenyl]-N-[[5-tert-butyl-2-(3-chlorophenyl)-2H-pyrazol-3-yl]-methyl]-propionamide] as the molecule, how does the “(f) Ki (human being) [nM] Cap: result in words” value read?
Answer: Its value is “AG”.

Same assay, conditions: Tables 8-12, read-out: (f) Ki (human being) [nM] Cap

Question: Which Ki does the source give for `CS(=O)(=O)NCc1ccc(NC(=O)NCc2cc(C(F)(F)F)nn2-c2ccc(F)c(F)c2)cc1F` [Example B49, 1-[[2-(3,4-Difluoro-phenyl)-5-(trifluoromethyl)-2H-pyrazol-3-yl]-methyl]-3-[3-fluoro-4-(methanesulfonamido-methyl)-phenyl]-urea] here?
Answer: The Ki was 11 nM.

Question: Which Ki does the source give for `CC(C)(C)c1cc(CNC(=O)Nc2ccc(CNS(C)(=O)=O)c(F)c2)n(-c2cccc(F)c2)n1` [Example B50, 1-[[5-tert-Butyl-2-(3-fluorophenyl)-2H-pyrazol-3-yl]-methyl]-3-[3-fluoro-4-(methanesulfonamido-methyl)-phenyl]-urea] here?
Answer: The Ki was 15 nM.

Question: Which Ki does the source give for `CC(C)(C)c1cc(CNC(=O)Nc2ccc(CNS(C)(=O)=O)c(F)c2)n(-c2ccc(F)c(Cl)c2)n1` [Example B51, 1-[[5-tert-Butyl-2-(3-chloro-4-fluoro-phenyl)-2H-pyrazol-3-yl]-methyl]-3-[3-fluoro-4-(methanesulfonamido-methyl)-phenyl]-urea] here?
Answer: Its Ki is 15 nM.

Question: `CS(=O)(=O)NCc1ccc(NC(=O)NCc2cc(C(F)(F)F)nn2-c2cccc(Cl)c2)cc1F` [Example B52, 1-[[2-(3-Chlorophenyl)-5-(trifluoromethyl)-2H-pyrazol-3-yl]-methyl]-3-[3-fluoro-4-(methanesulfonamido-methyl)-phenyl]-urea] was tested. Which Ki did it give?
Answer: Its Ki is 9 nM.

Question: Which Ki does the source give for `CC(C)(C)c1cc(CNC(=O)Nc2ccc(CNS(C)(=O)=O)c(F)c2)n(-c2ccc(F)cc2)n1` [Example B53, 1-[[5-tert-Butyl-2-(4-fluorophenyl)-2H-pyrazol-3-yl]-methyl]-3-[3-fluoro-4-(methanesulfonamido-methyl)-phenyl]-urea] here?
Answer: The Ki was 33 nM.

Question: For `CC(C)(C)c1cc(CNC(=O)Nc2ccc(CNS(C)(=O)=O)c(F)c2)n(-c2cccc(C(F)(F)F)c2)n1` [Example B54, 1-[[5-tert-Butyl-2-[3-(trifluoromethyl)phenyl]-2H-pyrazol-3-yl]-methyl]-3-[3-fluoro-4-(methanesulfonamido-methyl)-phenyl]-urea], which Ki is on record?
Answer: Its Ki is 8 nM.

Question: How did the Ki turn out when `CS(=O)(=O)NCc1ccc(NC(=O)NCc2cc(C(F)(F)F)nn2-c2cccc(C(F)(F)F)c2)cc1F` [Example B55, 1-[3-Fluoro-4-(methanesulfonamido-methyl)-phenyl]-3-[[5-(trifluoromethyl)-2-[3-(trifluoromethyl)phenyl]-2H-pyrazol-3-yl]-methyl]-urea] was run?
Answer: Its Ki is 27 nM.

Question: How did the Ki turn out when `CC(C)(C)c1cc(CNC(=O)Nc2ccc(CNS(N)(=O)=O)cc2)n(-c2cccc(F)c2)n1` [Example B56, 1-[[5-tert-Butyl-2-(3-fluorophenyl)-2H-pyrazol-3-yl]-methyl]-3-[4-[(sulfamoylamino)-methyl]-phenyl]-urea] was run?
Answer: Its Ki is 56 nM.

Question: With `NS(=O)(=O)NCc1ccc(NC(=O)NCc2cc(C(F)(F)F)nn2-c2ccc(F)c(F)c2)cc1` [Example B57, 1-[[2-(3,4-Difluoro-phenyl)-5-(trifluoromethyl)-2H-pyrazol-3-yl]-methyl]-3-[4-[(sulfamoylamino)-methyl]-phenyl]-urea] as the molecule, how does the Ki read?
Answer: Its Ki is 58 nM.

Question: `COc1cccc(-n2nc(C(F)(F)F)cc2CNC(=O)Nc2ccc(CNS(C)(=O)=O)c(F)c2)c1` [Example B58, 1-[3-Fluoro-4-(methanesulfonamido-methyl)-phenyl]-3-[[2-(3-methoxyphenyl)-5-(trifluoromethyl)-2H-pyrazol-3-yl]-methyl]-urea] was tested. Which Ki did it give?
Answer: Its Ki is 16 nM.

Question: With `CC(C)(C)c1cc(CNC(=O)Nc2ccc(CNS(N)(=O)=O)c(F)c2)n(-c2cccc(F)c2)n1` [Example B59, 1-[[5-tert-Butyl-2-(3-fluorophenyl)-2H-pyrazol-3-yl]-methyl]-3-[3-fluoro-4-[(sulfamoylamino)-methyl]-phenyl]-urea] as the molecule, how does the Ki read?
Answer: The Ki was 16 nM.

Question: `NS(=O)(=O)NCc1ccc(NC(=O)NCc2cc(C(F)(F)F)nn2-c2cccc(F)c2)cc1F` [Example B60, 1-[[2-(3-Fluorophenyl)-5-(trifluoromethyl)-2H-pyrazol-3-yl]-methyl]-3-[3-fluoro-4-[(sulfamoylamino)-methyl]-phenyl]-urea] was tested. Which Ki did it give?
Answer: Its Ki is 25 nM.

Question: `NS(=O)(=O)NCc1ccc(NC(=O)NCc2cc(C3CC3)nn2-c2cccc(Cl)c2)cc1F` [Example B61, 1-[[2-(3-Chlorophenyl)-5-cyclopropyl-2H-pyrazol-3-yl]-methyl]-3-[3-fluoro-4-[(sulfamoylamino)-methyl]-phenyl]-urea] was tested. Which Ki did it give?
Answer: Its Ki is 8 nM.

Question: For `NS(=O)(=O)NCc1ccc(NC(=O)NCc2cc(C(F)(F)F)nn2-c2ccc(F)c(F)c2)cc1F` [Example B62, 1-[[2-(3,4-Difluoro-phenyl)-5-(trifluoromethyl)-2H-pyrazol-3-yl]-methyl]-3-[3-fluoro-4-[(sulfamoylamino)-methyl]-phenyl]-urea], which Ki is on record?
Answer: Its Ki is 36 nM.

Question: `CNCc1ccc(C(C)C(=O)NCc2cc(C(C)(C)C)nn2-c2cccc(Cl)c2)cc1F` (stereo not shown) [Example B63, N-[[5-tert-Butyl-2-(3-chlorophenyl)-2H-pyrazol-3-yl]-methyl]-2-[3-fluoro-4-(methylamino-methyl)-phenyl]-propionamide] was tested. Which Ki did it give?
Answer: Its Ki is 30 nM.

Question: Which Ki does the source give for `CC(C(=O)NCc1cc(C(C)(C)C)nn1-c1cccc(Cl)c1)c1ccc(CN(C)C)c(F)c1` (stereo not shown) [Example B64, N-[[5-tert-Butyl-2-(3-chlorophenyl)-2H-pyrazol-3-yl]-methyl]-2-[4-(dimethylaminomethyl)-3-fluoro-phenyl]-propionamide] here?
Answer: The Ki was 45 nM.

Question: `CC(=O)NCc1ccc(C(C)C(=O)NCc2cc(C(F)(F)F)nn2-c2cccc(Cl)c2)cc1F` (stereo not shown) [Example B66, 2-[4-(Acetylamino-methyl)-3-fluoro-phenyl]-N-[[2-(3-chlorophenyl)-5-(trifluoromethyl)-2H-pyrazol-3-yl]-methyl]-propionamide] was tested. Which Ki did it give?
Answer: Its Ki is 29 nM.

Question: How did the Ki turn out when `Cc1cccc(-n2nc(C(F)(F)F)cc2CNC(=O)C(C)c2ccc(CNS(C)(=O)=O)c(F)c2)c1` (stereo not shown) [Example B68, 2-[3-Fluoro-4-(methanesulfonamido-methyl)-phenyl]-N-[[2-(m-tolyl)-5-(trifluoromethyl)-2H-pyrazol-3-yl]-methyl]-propionamide] was run?
Answer: Its Ki is 4 nM.

Question: With `CC(C)(C)c1cc(CNC(=O)Nc2ccc(CNS(N)(=O)=O)c(F)c2)n(-c2ccc(F)c(F)c2)n1` [Example B69, 1-[[5-tert-Butyl-2-(3,4-difluoro-phenyl)-2H-pyrazol-3-yl]-methyl]-3-[3-fluoro-4-[(sulfamoylamino)-methyl]-phenyl]-urea] as the molecule, how does the Ki read?
Answer: Its Ki is 30 nM.

Question: With `NS(=O)(=O)NCc1ccc(NC(=O)NCc2cc(C(F)(F)F)nn2-c2ccc(F)c(Cl)c2)cc1F` [Example B70, 1-[[2-(3-Chloro-4-fluoro-phenyl)-5-(trifluoromethyl)-2H-pyrazol-3-yl]-methyl]-3-[3-fluoro-4-[(sulfamoylamino)-methyl]-phenyl]-urea] as the molecule, how does the Ki read?
Answer: The Ki was 14 nM.

Source: US9624209B2, “Substituted phenylureas and phenylamides as vanilloid receptor ligands” (Gruenenthal GmbH, priority 2009, dated 2017)
